Literature values, collected in US20160346319A1, “NO/HE GAS MIXTURE WITH BA[…]” (AIR LIQUIDE SANTE (INTERNATIONAL), priority 2014, published 2016).

Test system: bacteria
Details: high dose, certain publications

[N]=O [NO, nitric oxide]
dose of NO showing an antibacterial effect: at least 150 ppm by volume
